From PMC6792352, “Limited Chemical Structural Diversity Found to Modulate Thyroid Hormone Receptor in the Tox21 Chemical Library” (Environmental Health Perspectives, 2019) come the findings set out here.

Structures can show the parent of a compound that is named as a salt.

The data set can be described thus: in vitro. The settings on record: rat, gh3-tre-luc cells.

What is called CC50 is the concentration at which the toxic effect on the cells reaches its halfway point. Read a high CC50 as better tolerance by the cells. Regarding `Brc1cccc(-c2ccccc2)c1` [3-Bromobiphenyl], the 50% cytotoxic concentration (CC50) at 24 h (AC50 (uM) modified / 1000, Tox21_110001=Tox21_200121, viability, 1 nM T3 present, 24 h) was > 90 µM. For the compound `CC1(C)C2=CCCC(C)(C)[C@]23CC[C@H]1C3` [(-)-Isolongifolene], the CC50 at 24 h (AC50 (uM) modified / 1000) is > 90 µM.

Compound `Cc1[nH]nc2c1N=C(c1ccccc1Cl)c1cc([N+](=O)[O-])ccc1N2` [PharmaGSID_48505] came in with a CC50 at 24 h (AC50 (uM) modified / 1000) of 39.4 µM. Turning to `C[C@H]1CNCCc2ccc(Cl)cc21` [Lorcaserin], the CC50 at 24 h (AC50 (uM) modified / 1000, Tox21_110001=Tox21_113018, viability, 1 nM T3 present, 24 h) is > 50 µM. As to `COC(=O)/C=C\C(=O)OC` [Dimethyl maleate], under “AC50 (uM) modified / 1000”, the CC50 at 24 h is > 90 µM. For `Cc1ccc(NC(=O)c2ccc(CN3CCN(C)CC3)cc2)cc1Nc1nccc(-c2cccnc2)n1` [Imatinib mesylate], the CC50 at 24 h (AC50 (uM) modified / 1000) was 18.5 µM. In the case of `FC(F)(F)c1ccc(Cl)cc1` [1-Chloro-4-(trifluoromethyl)benzene], for the setting “AC50 (uM) modified / 1000”, the CC50 at 24 h was > 90 µM. `C=CC[C@]1(O)CC[C@H]2[C@@H]3CCC4=CCCC[C@@H]4[C@H]3CC[C@@]21C` [Allylestrenol] yielded a CC50 at 24 h (AC50 (uM) modified / 1000) of 41.6 µM. Still for that read-out and setting: as for `N#CC(Br)(Br)C(N)=O` [2,2-Dibromo-3-nitrilopropionamide], the figure is > 90 µM; as for `CC(=O)O[C@]1(C(C)=O)CC[C@H]2[C@@H]3CCC4=CC(=O)CC[C@]4(C)[C@@]3(F)[C@@H](O)C[C@@]21C` [Flurogestone acetate], > 50 µM. Take `O=C(NC(=O)c1c(F)cccc1F)Nc1ccc(OC(F)(F)C(F)OC(F)(F)F)c(Cl)c1` (stereo not drawn) [Novaluron]: under “AC50 (uM) modified / 1000”, the CC50 at 24 h is > 50 µM. Take `O=C(O)CCCCCCNC1c2ccccc2CCc2ccccc21` [Amineptine]: the CC50 at 24 h (AC50 (uM) modified / 1000, Tox21_110001=Tox21_113313, viability, 1 nM T3 present, 24 h) is > 50 µM. For `Cc1onc(-c2c(F)cccc2Cl)c1C(=O)N[C@@H]1C(=O)N2[C@@H]1SC(C)(C)[C@@H]2C(=O)O` [Floxacillin sodium salt], for the setting “AC50 (uM) modified / 1000”, the CC50 at 24 h is > 50 µM. On the same count and under the same terms, as for `CC(C)C(=O)OC(=O)C(C)C` [Isobutyric anhydride], the figure is > 90 µM. Take `CCCOC(=O)Cc1ccc(OCC(=O)N(CC)CC)c(OC)c1` [Propanidid]: the half-maximal cytotoxic concentration (CC50) at 24 h (AC50 (uM) modified / 1000, Tox21_110001=Tox21_113307, viability, 1 nM T3 present, 24 h) was > 50 µM.

With `CCCCCCC(=O)CCCCCC/C=C/C[C@@H](O)[C@H](O)[C@@](N)(CO)C(=O)O` [Myriocin], the CC50 at 24 h (AC50 (uM) modified / 1000) is > 50 µM.

`CCCCC(CC)CNC(=N)NC(=N)NCCCCCCNC(=N)NC(=N)NCC(CC)CCCC` (stereo not drawn) [Alexidine dihydrochloride]: the CC50 at 24 h (AC50 (uM) modified / 1000) stood at 7.36 µM. Turning to `O=C(Nc1ccc2c(O)c(N=Nc3ccc(N=Nc4ccc(S(=O)(=O)O)cc4)cc3)c(S(=O)(=O)O)cc2c1)c1ccccc1` [C.I. Direct Red 81 disodium salt], it took 35.6 µM to reach half-maximal cytotoxicity (AC50 (uM) modified / 1000) (CC50 at 24 h). As to `CC(C(=O)O)c1ccc(C2CCCCC2)c2ccccc12` (stereo not drawn) [Quadrisol], for the setting “AC50 (uM) modified / 1000”, the CC50 at 24 h was > 50 µM. `c1cc2c3c(cccc3c1)CC2` [Acenaphthene]: under “AC50 (uM) modified / 1000”, the CC50 at 24 h was > 90 µM. For the compound `CCCCCCCCCCCCOC(C)=O` [Dodecyl acetate], the CC50 at 24 h (AC50 (uM) modified / 1000) was > 90 µM. Consider `O=C(O)c1ccncc1` [Isonicotinic acid], for which the 50% cytotoxic concentration (CC50) at 24 h (AC50 (uM) modified / 1000) was > 90 µM. Turning to `CCOC(=O)[C@H](CCc1ccccc1)N[C@@H](C)C(=O)N1Cc2cc(OC)c(OC)cc2C[C@H]1C(=O)O` [Moexipril hydrochloride], the CC50 at 24 h (AC50 (uM) modified / 1000) is > 50 µM. For `CC(C)(C)[C@H](O)[C@H](Cc1ccc(Cl)cc1)n1cncn1` (racemic) [Paclobutrazol], the CC50 at 24 h (AC50 (uM) modified / 1000) is > 90 µM. Same read-out and setting: as for `CCOC(=O)C(C)(C)Oc1ccc(Cl)cc1` [Clofibrate], the figure is > 90 µM; as for `C=C(C)C1CC=C(C)C(OC(C)=O)C1` (stereo not drawn) [Carvyl acetate], > 90 µM. For the compound `Cc1cccc2nccnc12` [5-Methylquinoxaline], the CC50 at 24 h (AC50 (uM) modified / 1000) is > 90 µM. On the same count and under the same terms, next, `COc1cc(O)cc(O)c1` [Flamenol]: > 50 µM; `CC1=C(/C=C/C(C)=C/C=C/C(C)=C/C=C/C=C(C)/C=C/C=C(C)/C=C/C2=C(C)C(=O)CCC2(C)C)C(C)(C)CCC1=O` [Canthaxanthin]: > 50 µM; `CCCCN1CCCC1C(=O)Nc1c(C)cc(C)cc1C` (stereo not drawn) [Bumecaine]: > 50 µM. In the case of `C=C1C[C@H]2[C@@H]3CCC4=CC(=O)C=C[C@]4(C)[C@@]3(F)[C@@H](O)C[C@]2(C)[C@@]1(O)C(=O)COC(C)=O` [Fluprednidene acetate], the CC50 at 24 h (AC50 (uM) modified / 1000) was > 50 µM.

Take `CCC(=O)C1CC(C(C)C)CC=C1C` (stereo not drawn) [1-(5-Isopropyl-2-methyl-cyclohex-2-enyl)-propan-1-one]: the CC50 at 24 h (AC50 (uM) modified / 1000) was > 90 µM.

`FC(Cl)(Cl)Cl` [Trichlorofluoromethane]: the CC50 at 24 h (AC50 (uM) modified / 1000) was > 90 µM.

Take `C=CC[C@@H]1/C=C(\C)C[C@H](C)C[C@H](OC)[C@H]2O[C@@](O)(C(=O)C(=O)N3CCCC[C@H]3C(=O)O[C@H](/C(C)=C/[C@@H]3CC[C@@H](O)[C@H](OC)C3)[C@H](C)[C@@H](O)CC1=O)[C@H](C)C[C@@H]2OC` [Tacrolimus]: the CC50 at 24 h (AC50 (uM) modified / 1000) is > 50 µM. Regarding `C[C@]12CCC(=O)C=C1CC[C@@H]1[C@@H]2CC[C@@]2(C)[C@H]1CC[C@]2(C)O` [17-Methyltestosterone], the CC50 at 24 h reads like this: (AC50 (uM) modified / 1000, Tox21_110001=Tox21_113161, viability, 1 nM T3 present, 24 h) > 50 µM; (AC50 (uM) modified / 1000, Tox21_110001=Tox21_400058, viability, 1 nM T3 present, 24 h) > 90 µM. The compound `C#C[C@]1(OC(=O)CCCCCC)CC[C@H]2[C@@H]3CCC4=CC(=O)CC[C@@H]4[C@H]3CC[C@@]21C` [Noristerat] showed a CC50 at 24 h (AC50 (uM) modified / 1000) of 10.7 µM. The same measure, in the same setting: next, `CC1=C(C=O)C(C)(C)CC=C1` [Safranal]: > 100 µM. Still for that read-out and setting: next, `O=C(O)CCS` [3-Mercaptopropanoic acid]: > 90 µM; `N[C@@H](Cc1ccccc1)C(=O)O` [Phenylalanine]: > 50 µM.

Regarding `Nc1ccccc1Cl` [2-Chloroaniline], the CC50 at 24 h (AC50 (uM) modified / 1000, Tox21_110001=Tox21_200802, viability, 1 nM T3 present, 24 h) is > 90 µM. Regarding `O=C(Nc1ccc(C(=O)O)c(O)c1)c1ccccc1` [Benzoylpas], for the setting “AC50 (uM) modified / 1000”, the CC50 at 24 h is > 50 µM. On the same count and under the same terms, next, `c1ccc2c(c1)ccc1c3ccccc3ccc21` [Chrysene]: > 40 µM; `CCCCCCCCCCCC(=O)N(CCO)CCO` [N,N-Bis(2-hydroxyethyl)dodecanamide]: 42.5 µM; `Cc1cc(C)c(/C=C2\C(=O)Nc3ccccc32)[nH]1` [SU-5416]: > 50 µM. On to `OC[C@@H](O)[C@@H](O)[C@H](O)[C@H](O)CO` [D-Mannitol], for which the CC50 at 24 h (AC50 (uM) modified / 1000) was > 90 µM. Consider `CCCCCCOC(=O)CCCCC` [Hexyl hexanoate], for which the CC50 at 24 h (AC50 (uM) modified / 1000) is > 90 µM. The same measure, in the same setting: next, `CNCCO` [N-Methylethanolamine]: > 90 µM; `O=C(O)CNC(=O)c1ccc(CO)o1` [5-(Hydroxymethyl-2-furoyl)glycine]: > 90 µM. Take `CO[C@@H]1[C@H](OC(=O)NC(=O)CCl)CC[C@]2(CO2)[C@H]1[C@@]1(C)O[C@@H]1CC=C(C)C` [o-(Chloroacetylcarbamoyl)fumagillol]: the CC50 at 24 h (AC50 (uM) modified / 1000) is > 30 µM. As to `CCC(N)Cc1c[nH]c2ccccc12` (stereo not drawn) [Etryptamine], under “AC50 (uM) modified / 1000, Tox21_110001=Tox21_112618, viability, 1 nM T3 present, 24 h”, the CC50 at 24 h was > 50 µM. In the case of `COc1ccc(OC)cc1` [Hydroquinone dimethyl ether], the CC50 at 24 h (AC50 (uM) modified / 1000) was > 90 µM. On the same count and under the same terms, as for `CCCC(=O)O[C@]1(C(=O)CO)CC[C@H]2[C@@H]3CCC4=CC(=O)CC[C@]4(C)[C@H]3[C@@H](O)C[C@@]21C` [Hydrocortisone 17-butyrate], the figure is > 50 µM; as for `CN1C(=S)CN=C(c2ccccc2)c2cc(Cl)ccc21` [Sulazepam], > 50 µM; as for `C=CC(C)(CCC=C(C)C)OC(C)=O` (stereo not drawn) [Linalyl acetate], > 90 µM. Still for that read-out and setting: as for `Nc1ncn([C@H]2C[C@H](O)[C@@H](CO)O2)c(=O)n1` [Decitabine], the figure is > 50 µM; as for `COc1cc(C[C@H](C)N)c(OC)cc1Br` [S-(+)-2,5-Dimethoxy-4-bromoamphetamine hydrochloride], 61.8 µM; as for `N=C(N)NCCC[C@H](N)C(=O)O` [L-Arginine], > 50 µM. `CC(=O)OC1CCC(C(C)(C)C)CC1` (stereo not drawn) [4-tert-Butylcyclohexyl acetate]: the CC50 at 24 h (AC50 (uM) modified / 1000) is > 90 µM. In the case of `c1ccc(CN(Cc2ccccc2)Cc2ccccc2)cc1` [Tribenzylamine], the CC50 at 24 h (AC50 (uM) modified / 1000) is > 90 µM. Take `CCC1(c2ccc(N)cc2)CCC(=O)NC1=O` (stereo not drawn) [Aminoglutethimide]: the CC50 at 24 h (AC50 (uM) modified / 1000) was > 50 µM. Still for that read-out and setting: next, `CC(C)CC(=O)C1C(=O)c2ccccc2C1=O` [2-Isovaleryl-1,3-indanedione]: > 90 µM. As for `N#C/C(=C1/SCC(c2ccccc2Cl)S1)n1ccnc1` (stereo not drawn) [Lanoconazole], the CC50 at 24 h (AC50 (uM) modified / 1000) is > 50 µM. Same read-out and setting: as for `COC(=O)C1CCC(C(=O)OC)CC1` (stereo not drawn) [Dimethyl hexahydroterephthalate], the figure is > 90 µM. On the same count and under the same terms, as for `COC(C)=O` [Methyl acetate], the figure is > 90 µM; as for `CCCCC1C(=O)N(c2ccccc2)N(c2ccccc2)C1=O` [Phenylbutazone], > 90 µM. Take `CO[C@H]1C[C@H](O[C@@H]2/C(C)=C/C[C@@H]3C[C@@H](C[C@]4(CC[C@H](C)[C@@H](C5CCCCC5)O4)O3)OC(=O)[C@@H]3C=C(C)/C(=N/O)[C@H]4OC/C(=C\C=C\[C@@H]2C)[C@]43O)O[C@@H](C)[C@@H]1O` [Selamectin]: the CC50 at 24 h (AC50 (uM) modified / 1000) is 33.2 µM. On the same count and under the same terms, next, `CCCCC(CC)COC(=O)c1ccc(C(=O)OCC(CC)CCCC)c(C(=O)OCC(CC)CCCC)c1` (stereo not drawn) [Tris(2-ethylhexyl) trimellitate]: > 90 µM; `CO/N=C(\C(=O)N[C@@H]1C(=O)N2C(C(=O)[O-])=C(C[n+]3cccc4c3CCCC4)CS[C@H]12)c1csc(N)n1` [Cefquinome sulfate]: > 50 µM.
